As a reminder, the IC50 is the point on the concentration scale where inhibition reaches its midpoint. As a reminder, the CC50 is the concentration at which the toxic effect on the cells reaches its halfway point. By EC50 is commonly meant the concentration needed to bring the measured effect to its halfway point. Low readings indicate an effect from little substance, high ones a need for much substance.

Drawing on ChEMBL document CHEMBL1140018, “Synthesis and structure-activity relationship of imidazo(1,2-a)thieno(3,2-e)pyrazines as IKK-beta inhibitors” (Bioorg Med Chem Lett, 2007), this text covers IC50, CC50 and EC50 for 19 compounds.

For data set [1], the target named is T1, Inhibitor of nuclear factor kappa-B kinase subunit alpha (Homo sapiens, UniProt O15111).
T1 sequence (O15111 whole entry): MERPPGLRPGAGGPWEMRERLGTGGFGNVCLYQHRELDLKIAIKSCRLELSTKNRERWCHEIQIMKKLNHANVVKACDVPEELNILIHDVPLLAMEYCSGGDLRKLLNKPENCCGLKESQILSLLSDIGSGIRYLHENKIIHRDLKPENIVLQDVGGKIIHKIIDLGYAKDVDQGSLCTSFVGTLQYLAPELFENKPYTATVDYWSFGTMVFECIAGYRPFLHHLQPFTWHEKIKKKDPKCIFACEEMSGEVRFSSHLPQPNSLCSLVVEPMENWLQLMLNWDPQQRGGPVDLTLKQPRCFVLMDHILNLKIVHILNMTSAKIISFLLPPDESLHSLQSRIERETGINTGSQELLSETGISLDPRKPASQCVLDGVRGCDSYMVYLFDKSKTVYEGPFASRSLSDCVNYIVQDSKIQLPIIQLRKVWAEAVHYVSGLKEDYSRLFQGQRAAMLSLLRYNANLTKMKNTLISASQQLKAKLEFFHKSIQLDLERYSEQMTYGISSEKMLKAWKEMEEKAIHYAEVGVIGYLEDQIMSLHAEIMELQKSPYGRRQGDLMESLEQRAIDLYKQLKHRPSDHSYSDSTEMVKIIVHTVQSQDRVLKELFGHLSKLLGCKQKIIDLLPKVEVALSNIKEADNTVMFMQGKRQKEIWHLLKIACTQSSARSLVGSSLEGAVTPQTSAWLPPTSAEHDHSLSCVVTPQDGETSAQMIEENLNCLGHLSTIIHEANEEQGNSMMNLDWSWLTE

Data set [2] addresses T2, Inhibitor of nuclear factor kappa-B kinase subunit beta (Homo sapiens, UniProt O14920).
T2 sequence (O14920 whole entry): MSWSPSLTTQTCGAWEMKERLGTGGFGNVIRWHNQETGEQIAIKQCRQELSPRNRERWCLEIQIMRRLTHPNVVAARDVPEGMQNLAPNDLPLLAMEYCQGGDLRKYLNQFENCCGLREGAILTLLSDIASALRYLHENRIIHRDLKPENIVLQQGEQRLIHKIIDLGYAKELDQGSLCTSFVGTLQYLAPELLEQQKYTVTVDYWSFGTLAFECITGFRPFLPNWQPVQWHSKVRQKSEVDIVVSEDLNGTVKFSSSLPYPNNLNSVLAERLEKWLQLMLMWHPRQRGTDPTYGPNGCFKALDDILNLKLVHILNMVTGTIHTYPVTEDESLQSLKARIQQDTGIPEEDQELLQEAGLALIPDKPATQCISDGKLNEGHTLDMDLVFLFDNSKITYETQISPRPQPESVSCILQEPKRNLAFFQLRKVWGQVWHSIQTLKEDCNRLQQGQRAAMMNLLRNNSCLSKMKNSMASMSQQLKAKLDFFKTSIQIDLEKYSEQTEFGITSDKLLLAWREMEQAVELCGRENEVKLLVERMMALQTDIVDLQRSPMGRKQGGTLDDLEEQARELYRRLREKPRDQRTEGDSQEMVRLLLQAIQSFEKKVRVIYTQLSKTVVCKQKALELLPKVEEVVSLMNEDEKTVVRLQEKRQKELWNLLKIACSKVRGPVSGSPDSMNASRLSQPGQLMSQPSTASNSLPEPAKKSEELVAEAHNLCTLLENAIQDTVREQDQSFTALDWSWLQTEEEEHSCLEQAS

A short description of data set [3]: Cytotoxicity against Jurkat cells by Alamar blue assay. The settings on record: human. (Resazurin is reduced to fluorescent resorufin, in cell work by metabolically active cells.)
A further data set deals with Jurkat. Kind of data set: Inhibition of TNF-alpha-induced response in Jurkat cells. Particulars: Homo sapiens.

With `CNc1nc2cc(-c3cccc(C(=O)O)c3)sc2n2c(C)cnc12`, the IC50 in data set [1] was 14400 nM; in data set [2] it was 190 nM. The compound further showed a CC50 in data set [3] (Jurkat cells) of more than 100000 nM. This compound also had an EC50 in the data set with Jurkat of 65700 nM.
For `Cc1cnc2c(NCCN)nc3cc(-c4ccc(CO)cc4)sc3n12`, the results for the 50% inhibitory concentration (IC50) in data set [1] and in data set [2] were 2330 nM and 23 nM, respectively. The same compound gave a cytotoxic concentration (CC50) in data set [3] (Jurkat cells) of 14000 nM. In the data set on Jurkat, this compound came in with an EC50 of 40900 nM.
For `COc1ccc(-c2cc3nc(NCCN)c4ncc(C)n4c3s2)cc1` the same measures were 2800 nM, 95 nM, more than 100000 nM and more than 30000 nM.
For `CNc1nc2cc(-c3cccc(C(N)=O)c3)sc2n2c(C)cnc12` the same measures were more than 30000 nM, 290 nM, more than 100000 nM and 35600 nM.
For `COc1cccc(-c2cc3nc(NCCN)c4ncc(C)n4c3s2)c1` the same measures were 690 nM, 44 nM, 3500 nM and 29200 nM.
Turning to `CC(=O)NCCNc1nc2cc(-c3ccccc3)sc2n2c(C)cnc12`, the IC50 in data set [1] turned out to be 7030 nM; in data set [2], 290 nM. Also, the CC50 in data set [3] (Jurkat cells) was more than 100000 nM. For the same compound, the EC50 in the data set with Jurkat stood at 10200 nM.
As for `CNc1nc2cc(-c3cccc(CNCC(N)=O)c3)sc2n2c(C)cnc12`, the results for the IC50 in data set [1] and in data set [2] were 510 nM and 23 nM, respectively. For the same compound, the CC50 in data set [3] (Jurkat cells) is more than 100000 nM. The EC50 in the data set on Jurkat was determined as 2610 nM.
For `CNc1nc2cc(-c3cccc(CNC(C)=O)c3)sc2n2c(C)cnc12` the same measures were 770 nM, 38 nM, more than 100000 nM and 2330 nM.
The like results for `Cc1cnc2c(NCCN)nc3cc(-c4cccc(CCO)c4)sc3n12` were, in that order, 910 nM, 21 nM, 13000 nM and 950 nM.
For `CNc1nc2ccsc2n2c(C)cnc12` the same measures were 4120 nM, 520 nM, more than 100000 nM and more than 3000 nM.
With `CNc1nc2cc(-c3cccc(CCNS(N)(=O)=O)c3)sc2n2c(C)cnc12`, the IC50 in data set [1] is 440 nM; in data set [2], 7 nM. This compound displayed a CC50 in data set [3] (Jurkat cells) of more than 100000 nM. The compound also yielded an EC50 in the data set on Jurkat of 920 nM.
The like results for `CNc1nc2cc(-c3cccc(CCN)c3)sc2n2c(C)cnc12` were, in that order, 650 nM, 45 nM, 21000 nM and 6730 nM.
For the compound `Cc1cnc2c(NCCN)nc3cc(-c4cccc(CO)c4)sc3n12`, the results for the IC50 in data set [1] and in data set [2] were 450 nM and 8 nM, respectively. Also, the CC50 in data set [3] (jurkat) was determined as 7000 nM. The compound further returned an EC50 in the data set on Jurkat of 2400 nM.
On to `Cc1cnc2c(NCCN)nc3ccsc3n12`, for which the IC50 in data set [1] came to 12100 nM; in data set [2] it was 170 nM. The compound also had a CC50 in data set [3] (Jurkat cells) of more than 100000 nM. Moreover, the EC50 in the data set with Jurkat is more than 100000 nM.
With `Cc1cnc2c(NCCN(C)C)nc3cc(-c4ccccc4)sc3n12`, the 50% inhibitory concentration (IC50) in data set [1] was 1170 nM; in data set [2] it was 95 nM. In data set [3] (Jurkat cells), this compound had a CC50 of more than 100000 nM. In the data set with Jurkat, this compound had an EC50 of more than 30000 nM.
The like results for `CNc1nc2cc(-c3cccc(C[C@@H](N)C(N)=O)c3)sc2n2c(C)cnc12` were, in that order, 190 nM, 27 nM, 90000 nM and 690 nM.
For the compound `CNc1nc2cc(-c3cccc(CCNC(C)=O)c3)sc2n2c(C)cnc12`, the IC50 in data set [1] worked out at 820 nM; in data set [2], 21 nM. Besides, in data set [3] (Jurkat cells), the CC50 is more than 100000 nM. Also, the EC50 in the data set on Jurkat turned out to be 1970 nM.
For `CNc1nc2cc(-c3cccc(C[C@H](N)C(N)=O)c3)sc2n2c(C)cnc12` the same measures were 260 nM, 14 nM, more than 100000 nM and 450 nM.
Regarding `CNCCNc1nc2cc3ccccc3cc2n2c(C)cnc12`, inhibition in data set [1] was half-maximal at 420 nM (IC50). The compound also came in with an EC50 with Jurkat of 850 nM.
